Test results as given in patent US20020155064A1, “Method for detection and localization of malignant human tumours” (priority 1997, published 2002).

Test system: neurotensin receptors
Experiment: Receptor autoradiography displacement of [125I]-neurotensin binding on tumour tissue sections
Details: tissue sections from human differentiated ductal pancreatic adenocarcinoma; 40,000 cpm/100 µl [125I]-neurotensin, increasing concentrations of unlabelled peptide; 4° C., 60 minutes; FIG. 1
Procedure: Receptor autoradiography is performed on 10- and 20-mm thick cryostat sections of the various tumour samples, as described by Reubi et al. (Cancer Res. 1990, 50, 5969-5977). […] After incubation, the sections are washed for eight minutes at 4° C. in four consecutive baths containing 50 mM Tris-HCl buffer, pH 7.6, dipped in ice-cold water, and then quickly dried in a refrigerator under a stream of cold air. The sections are subsequently exposed to a ^3H-Ultrofilm for 1 week, to detect the precise location of the radioactivity. […] Each point represents the optical density of binding measured in the tumour area. Non-specific binding is subtracted from all values.

In the case of “Ac-Arg-Arg-Pro-Tyr-Ile-Leu-OH [acetyl-neurotensin 8-13]”, the “displacement of [125I]-neurotensin binding” value is reported as “Complete displacement”.
